According to US8629143B2, “Potassium channel modulators” (AbbVie Inc., priority 2009, dated 2014):

Target: T1, KCNQ 2/3 channels (HEK293 cells stably expressing human KCNQ2 and KCNQ3 subunits) (Homo sapiens, UniProt O43525+O43526)
T1 construct: expressed in transfected cells; host or cells: HEK293
Assay: KCNQ2/3 channel activation, thallium flux FLIPR assay with BTC-AM dye
Type: cell-based
Conditions: for Emax: HEK293, maximum response relative to the response produced by 10 μM retigabine (set at 100%), read-out: Max. %; for EC50: HEK293 cells expressing human KCNQ2 and KCNQ3, thallium flux, FLIPR
Protocol: The following example describes the assay that can be used to identify compounds that activate KCNQ 2/3 channels.
HEK293 cells stably expressing human KCNQ2 and KCNQ3 subunits were seeded in 96-well, black-walled, clear-bottomed, poly-D-lysine coated plates (BD Biosciences, Bedford, Mass.) at a density of 1×10^5 cells per well 24 hours before the assay. On the assay day, BTC-AM dye (Invitrogen, Carlsbad, Calif.) was loaded into the cells by replacing the cell culture medium with 55 μL/well of 3 μg/mL dye in DPBS. Dye loading was allowed to proceed for 2 hours at room temperature and then cells were washed twice with 50 μL/well of assay buffer (in mM: 10 HEPES pH 7.3, 5 glucose, 140 Na-gluconate, 2.5 K-gluconate, 3.6 Ca-gluconate, 2 MgSO4, 0.1 Ouabain) to remove unloaded dye. Cells were incubated in 50 μL of assay buffer before loading onto a FLIPR system (Molecular Devices, Sunnyvale, Calif.). Various concentrations of compounds to be assayed were added to the cells in 50 μL of assay buffer and incubated for 4 minutes. The fluorescence signal was initiated by adding 100 μL of assay buffer containing 6 mM TlNO3 and 10 mM K2SO4. Fluors were excited using the 488-nm line of an argon laser and emission was filtered using a 540±30 nm bandpass filter. Fluorescent signals were recorded for 3 minutes. Sums of the responses over basal responses were plotted versus concentrations of test compounds to obtain an EC50 value. The maximum response for each test compound was determined relative to the response produced by 10 μM retigabine. The maximum response of retigabine at 10 μM was set at 100%.

| Emax | EC50 | Structure (SMILES) |
| --- | --- | --- |
| 134% | 100 to 500 nM | CC(C)c1ccc(-c2nn(NC(=O)C[C@H]3C[C@@H]4CC[C@H]3C4)c(=O)c3ccccc23)cc1 (racemic) [Example 168, (±)-2-(exo-bicyclo[2.2.1]hept-2-yl)-N-[4-(4-isopropylphenyl)-1-oxophthalazin-2(1H)-yl]acetamide] |
| 114% | 100 to 500 nM | CC(C)(CC(=O)Nn1nc(-c2ccc(C(F)(F)F)cc2)c2ccccc2c1=O)c1ccccc1 [Example 148, 3-methyl-N-{1-oxo-4-[4-(trifluoromethyl)phenyl]phthalazin-2(1H)-yl}-3-phenylbutanamide] |
| 84% | 100 to 500 nM | COc1cccc(CC(=O)Nn2nc(-c3ccc(Cl)cc3)c3ccccc3c2=O)c1 [Example 105, N-[4-(4-chlorophenyl)-1-oxophthalazin-2(1H)-yl]-2-(3-methoxyphenyl)acetamide] |
| 116% | 100 to 500 nM | CC(C)(CC(=O)Nn1nc(C(F)(F)F)c2ccccc2c1=O)c1ccccc1 [Example 52, 3-methyl-N-[1-oxo-4-(trifluoromethyl)phthalazin-2(1H)-yl]-3-phenylbutanamide] |
| 96% | 100 to 500 nM | Cc1cccc(CC(=O)Nn2nc(-c3ccc(Cl)cc3)c3ccccc3c2=O)c1 [Example 108, N-[4-(4-chlorophenyl)-1-oxophthalazin-2(1H)-yl]-2-(3-methylphenyl)acetamide] |
| 151% | 100 to 500 nM | CC(C)(C)c1nn(NC(=O)Cc2ccc(Cl)cc2)c(=O)c2ccccc12 [Example 65, N-(4-tert-butyl-1-oxophthalazin-2(1H)-yl)-2-(4-chlorophenyl)acetamide] |
| 140% | < 100 nM | O=C(CC12CC3CC(CC(C3)C1)C2)Nn1nc(-c2ccccc2)c2c(F)ccc(F)c2c1=O [Example 15, 2-(1-adamantyl)-N-(5,8-difluoro-1-oxo-4-phenylphthalazin-2(1H)-yl)acetamide] |
| 84% | 1000 to 10000 nM | O=C(Cc1cccs1)Nn1nc(C(F)(F)F)c2ccccc2c1=O [Example 54, N-[1-oxo-4-(trifluoromethyl)phthalazin-2(1H)-yl]-2-(2-thienyl)acetamide] |
| 164% | < 100 nM | O=C(C[C@H]1C[C@@H]2CC[C@H]1C2)Nn1nc(C2CCC2)c2ccccc2c1=O (racemic) [Example 68, (±)-2-(exo-bicyclo[2.2.1]heptan-2-yl)-N-(4-cyclobutyl-1-oxophthalazin-2(1H)-yl)acetamide] |
| 20% | > 10000 nM | O=C(CC1(C(F)(F)F)CCCC1)Nn1nc(Cc2ccccc2)c2ccccc2c1=O [Example 139, N-(4-benzyl-1-oxophthalazin-2(1H)-yl)-2-[1-(trifluoromethyl)cyclopentyl]acetamide] |
| 77% | 100 to 500 nM | O=C(Cc1cc(F)cc(F)c1)Nn1nc(C(F)(F)F)c2ccccc2c1=O [Example 11, 2-(3,5-difluorophenyl)-N-[1-oxo-4-(trifluoromethyl)phthalazin-2(1H)-yl]acetamide] |

More lines, now with the values behind:

| Structure (SMILES) | Emax | EC50 |
| --- | --- | --- |
| O=C(Cc1ccc(Cl)cc1)Nn1nc(-c2ccccc2)c2c(c1=O)CCCC2 [Example 187, 2-(4-chlorophenyl)-N-(1-oxo-4-phenyl-5,6,7,8-tetrahydrophthalazin-2(1H)-yl)acetamide] | 123% | 100 to 500 nM |
| Cc1ccc(CC(=O)Nn2nc(-c3ccc(Cl)cc3)c3ccccc3c2=O)cc1 [Example 107, N-[4-(4-chlorophenyl)-1-oxophthalazin-2(1H)-yl]-2-(4-methylphenyl)acetamide] | 98% | 100 to 500 nM |
| O=C(Cc1cc(F)cc(F)c1)Nn1nc(C2CCCC2)c2ccccc2c1=O [Example 73, N-(4-cyclopentyl-1-oxophthalazin-2(1H)-yl)-2-(3,5-difluorophenyl)acetamide] | 142% | < 100 nM |
| Cc1ccc(-c2nn(NC(=O)C[C@@H]3C[C@@H]4C=C[C@H]3C4)c(=O)c3ccccc23)c(C)c1 [Example 159, 2-[(1S,2S,4S)-bicyclo[2.2.1]hept-5-en-2-yl]-N-[4-(2,4-dimethylphenyl)-1-oxophthalazin-2(1H)-yl]acetamide] | 156% | 100 to 500 nM |
| O=C(Cc1ccc(Cl)c(F)c1)Nn1nc(C(F)(F)F)c2ccccc2c1=O [Example 59, 2-(4-chloro-3-fluorophenyl)-N-[1-oxo-4-(trifluoromethyl)phthalazin-2(1H)-yl]acetamide] | 90% | 1000 to 10000 nM |
| Cc1ccc(-c2nn(NC(=O)CC3CC4CCC3C4)c(=O)c3ccccc23)c(C)c1 (racemic) [Example 160, (±)-2-(exo-bicyclo[2.2.1]hept-2-yl)-N-[4-(2,4-dimethylphenyl)-1-oxophthalazin-2(1H)-yl]acetamide] | 157% | < 100 nM |
| CC1(C)[C@H]2CC[C@@H](CC(=O)Nn3nc(-c4ccc(Cl)cc4)c4ccccc4c3=O)[C@@H]1C2 [Example 115, N-[4-(4-chlorophenyl)-1-oxophthalazin-2(1H)-yl]-2-[(1S,2S,5S)-6,6-dimethylbicyclo[3.1.1]hept-2-yl]acetamide] | 69% | 100 to 500 nM |
| O=C(CC1(c2ccc(Cl)cc2)CCC1)Nn1nc(C(F)(F)F)c2ccccc2c1=O [Example 40, 2-[1-(4-chlorophenyl)cyclobutyl]-N-[1-oxo-4-(trifluoromethyl)phthalazin-2(1H)-yl]acetamide] | 7% | > 10000 nM |
| O=C(Cc1cccc(C(F)(F)F)c1)Nn1nc(-c2ccc(Cl)cc2)c2ccccc2c1=O [Example 100, N-[4-(4-chlorophenyl)-1-oxophthalazin-2(1H)-yl]-2-[3-(trifluoromethyl)phenyl]acetamide] | 79% | 100 to 500 nM |
| O=C(Cc1cc(F)cc(F)c1)Nn1nc(C2CCC2)c2ccccc2c1=O [Example 69, N-(4-cyclobutyl-1-oxophthalazin-2(1H)-yl)-2-(3,5-difluorophenyl)acetamide] | 138% | < 100 nM |
| O=C(CC1(C(F)(F)F)CCCC1)Nn1nc(-c2ccc(Cl)cc2)c2ccccc2c1=O [Example 87, N-[4-(4-chlorophenyl)-1-oxophthalazin-2(1H)-yl]-2-[1-(trifluoromethyl)cyclopentyl]acetamide] | 104% | 500 to 1000 nM |
| CC(C)CCC(=O)Nn1nc(-c2ccc(Cl)cc2)c2ccccc2c1=O [Example 110, N-[4-(4-chlorophenyl)-1-oxophthalazin-2(1H)-yl]-4-methylpentanamide] | 120% | < 100 nM |
| O=C(CSC12CC3CC(CC(C3)C1)C2)Nn1nc(C(F)(F)F)c2ccccc2c1=O [Example 192, 2-(adamantan-1-ylthio)-N-[1-oxo-4-(trifluoromethyl)phthalazin-2(1H)-yl]acetamide] | 155% | 100 to 500 nM |
| O=C(Nn1nc(-c2ccc(Cl)cc2)c2ccccc2c1=O)C(F)c1ccccc1 (stereo not shown) [Example 90, N-[4-(4-chlorophenyl)-1-oxophthalazin-2(1H)-yl]-2-fluoro-2-phenylacetamide] | 1% | > 10000 nM |
| O=C(Cc1ccc2c(c1)OCO2)Nn1nc(-c2ccc(Cl)cc2)c2ccccc2c1=O [Example 194, 2-(1,3-benzodioxol-5-yl)-N-[4-(4-chlorophenyl)-1-oxophthalazin-2(1H)-yl]acetamide] | 248% | 500 to 1000 nM |
| O=C(Cc1ccc(F)cc1)Nn1nc(-c2ccccc2)c2c(F)ccc(F)c2c1=O [Example 14, N-(5,8-difluoro-1-oxo-4-phenylphthalazin-2(1H)-yl)-2-(4-fluorophenyl)acetamide] | 171% | 100 to 500 nM |
| O=C(C[C@H]1C[C@@H]2CC[C@H]1C2)Nn1nc(-c2ccc(F)cc2F)c2ccccc2c1=O (racemic) [Example 134, (±)-2-(exo-bicyclo[2.2.1]hept-2-yl)-N-[4-(2,4-difluorophenyl)-1-oxophthalazin-2(1H)-yl]acetamide] | 192% | < 100 nM |
| Cc1ccc(C)c(-c2nn(NC(=O)Cc3ccc(Cl)cc3)c(=O)c3ccccc23)c1 [Example 157, 2-(4-chlorophenyl)-N-[4-(2,5-dimethylphenyl)-1-oxophthalazin-2(1H)-yl]acetamide] | 155% | 100 to 500 nM |
| CC(C)c1nn(NC(=O)CC23CC4CC(CC(C4)C2)C3)c(=O)c2cc(C(F)(F)F)ccc12 [Example 173, 2-(adamantan-1-yl)-N-[4-isopropyl-1-oxo-7-(trifluoromethyl)phthalazin-2(1H)-yl]acetamide] | -12% | > 10000 nM |
| O=C(Cc1cc(F)cc(F)c1)Nn1nc(C2CCCCC2)c2ccccc2c1=O [Example 77, N-(4-cyclohexyl-1-oxophthalazin-2(1H)-yl)-2-(3,5-difluorophenyl)acetamide] | 145% | < 100 nM |
| O=C(CC1CC2CCC1C2)Nn1nc(C2CCCCC2)c2ccccc2c1=O (racemic) [Example 74, (±)-2-(exo-bicyclo[2.2.1]heptan-2-yl)-N-(4-cyclohexyl-1-oxophthalazin-2(1H)-yl)acetamide] | 165% | < 100 nM |
